According to ChEMBL document CHEMBL3856190, “Novel spirothiazamenthane inhibitors of the influenza A M2 proton channel” (Eur J Med Chem, 2016):
Activity calls are given as the source filed them. The rule behind the calls is not given here.

Experiments:
[1] = Inhibition of Influenza A virus A/udorn/72(H3N2) wild type M2 proton channel expressed in yeast assessed as growth restoration measured after 44 hrs by turbidometric assay; design: species or system Influenza A virus (A/udorn/1972(H3N2))
[2] = Cytotoxicity against yeast cells assessed as growth inhibition at 100 uM after 44 hrs by turbidometric assay; type: toxicity, cell-based; details: saccharomyces cerevisiae
[3] = Cytotoxicity against yeast cells assessed as growth inhibition after 44 hrs by turbidometric assay; type: toxicity, cell-based; details: Saccharomyces cerevisiae
MDCK [4] = assay: Antiviral activity against Influenza A virus A/Puerto Rico/8/34 expressing wild type M2 proton channel infected MDCK cells assessed as inhibition of viral replication at 20 to 100 uM measured after 10 hrs by miniplaque assay; type: functional, cell-based; details: Influenza A virus (A/Puerto Rico/8/1934(H1N1))
[5] = Cytotoxicity against MDCK cells assessed as reduction in cell viability at 100 uM; type: toxicity, cell-based, Canis lupus familiaris; details: dog
MDCK [6] = assay: Antiviral activity against amantadine-sensitive Influenza A virus A/Hong Kong/1/68(H3N2) infected in MDCK cells assessed as protection from virus-induced cell death at 1 uM measured after 72 hrs by MTT assay; type: functional, cell-based; details: Influenza A virus (A/Hong Kong/1/1968(H3N2))
[7] = Cytotoxicity against MDCK cells at 3 uM measured after 72 hrs by MTT assay; type: toxicity, cell-based, Canis lupus familiaris; details: dog
[8] = Antiviral activity against Influenza A virus A/Puerto Rico/8/34 expressing wild type M2 proton channel infected in MDCK cells assessed as inhibition of viral replication measured after 10 hrs by miniplaque assay; type: functional, cell-based, Influenza A virus (A/Puerto Rico/8/1934(H1N1))
[9] = Antiviral activity against Influenza A virus A/Puerto Rico/8/34 expressing wild type M2 proton channel infected in MDCK cells assessed as inhibition of viral replication at >= 0.8 uM measured after 10 hrs by miniplaque assay; type: functional, Influenza A virus (A/Puerto Rico/8/1934(H1N1))

| SMILES | EC50 [1] [µM] | Activity [2] | IC50 at 44 h [3] [µM] | other results |
| --- | --- | --- | --- | --- |
| CC1(C)N=C(N2CCOCC2)S[C@]12CC[C@@H](C)CC2 | 0.7 | Non-Toxic |  |  |
| CC1(C)N=C(NCCN2CCN(S(C)(=O)=O)CC2)S[C@]12CC[C@@H](C)CC2 |  | Non-Toxic |  |  |
| CC1(C)N=C(NCc2ccc(C#N)cc2)S[C@]12CC[C@@H](C)CC2 |  |  | 100 |  |
| CC1(C)N=C(NCc2ccccn2)S[C@]12CC[C@@H](C)CC2 | 10 | Non-Toxic |  |  |
| CC1(C)N=C(NCc2ccco2)S[C@]12CC[C@@H](C)CC2 |  |  | > 30 |  |
| CCOCCN1CCN(CCNC2=NC(C)(C)[C@]3(CC[C@H](C)CC3)S2)CC1 | 2.1 | Non-Toxic |  | inhibition (MDCK [4]): Active |
| CC1(C)N=C(NCCN2CCOCC2)S[C@]12CC[C@@H](C)CC2 | > 100 | Non-Toxic |  |  |
| CC1(C)N=C(NCc2cccc(F)c2)S[C@]12CC[C@@H](C)CC2 |  |  | 10 |  |
| COc1ccc(CNC2=NC(C)(C)[C@]3(CC[C@H](C)CC3)S2)c(OC)c1 | > 30 |  | 100 |  |
| CC1(C)N=C(NS(=O)(=O)c2ccccc2)S[C@]12CC[C@@H](C)CC2 |  |  | 30 |  |
| CC1(C)N=C(NCCn2ccnc2)S[C@]12CC[C@@H](C)CC2 | > 100 | Non-Toxic |  |  |
| CN1CCC(CNC2=NC(C)(C)[C@]3(CC[C@H](C)CC3)S2)CC1 | 10 | Non-Toxic |  |  |
| CC1(C)N=C(NCCN2CCN(S(=O)(=O)c3ccccc3)CC2)S[C@]12CC[C@@H](C)CC2 | 18 | Non-Toxic |  |  |
| Cc1cccnc1NCCNC1=NC(C)(C)[C@]2(CC[C@H](C)CC2)S1 |  |  | 100 |  |
| CC1(C)N=C(NCCNc2ccccc2)S[C@]12CC[C@@H](C)CC2 |  |  | 10 |  |
| CCN1CCN(CCNC2=NC(C)(C)[C@]3(CC[C@H](C)CC3)S2)CC1 | > 30 |  | 100 |  |
| CC1(C)N=C(NCc2ccccc2F)S[C@]12CC[C@@H](C)CC2 |  |  | 10 |  |
| CC1(C)N=C(NCCc2cccnc2)S[C@]12CC[C@@H](C)CC2 | 0.9 | Non-Toxic |  |  |
| CC1(C)N=C(NCCN2CCNCC2)S[C@]12CC[C@@H](C)CC2 | 2.6 | Non-Toxic |  |  |
| CC1(C)N=C(NCc2ccc(F)cc2)S[C@]12CC[C@@H](C)CC2 |  |  | 30 |  |
| CC(C)(C)OC(=O)N1CCN(CCNC2=NC(C)(C)[C@]3(CC[C@H](C)CC3)S2)CC1 |  |  | > 30 |  |
| CN(C)CCN1CCN(CCNC2=NC(C)(C)[C@]3(CC[C@H](C)CC3)S2)CC1 | 70 | Non-Toxic |  | inhibition (MDCK [4]): Active |
| CC(C)CCN1CCN(CCNC2=NC(C)(C)[C@]3(CC[C@H](C)CC3)S2)CC1 | 10 | Non-Toxic |  | inhibition (MDCK [4]): Active; Activity [5]: Toxic |

| SMILES | EC50 [1] [µM] | Activity [2] | IC50 at 44 h [3] [µM] | other results |
| --- | --- | --- | --- | --- |
| CC1(C)N=C(NC(=O)c2ccccc2)S[C@]12CC[C@@H](C)CC2 |  |  | 10 |  |
| COc1cc(F)ccc1CNC1=NC(C)(C)[C@]2(CC[C@H](C)CC2)S1 |  |  | > 30 |  |
| CC1(C)N=C(N2CCCCC2)S[C@]12CC[C@@H](C)CC2 | 10 | Non-Toxic |  |  |
| CC1(C)N=C(NCc2cccs2)S[C@]12CC[C@@H](C)CC2 |  |  | 30 |  |
| COc1ccc(C(=O)NC2=NC(C)(C)[C@]3(CC[C@H](C)CC3)S2)c(OC)c1 |  |  | 3 |  |
| CC1(C)N=C(NCCN2CCCCC2)S[C@]12CC[C@@H](C)CC2 | > 100 | Non-Toxic |  |  |
| CC1(C)N=C(NCC2CCNCC2)S[C@]12CC[C@@H](C)CC2 | > 100 | Non-Toxic |  |  |
| CC1(C)N=C(NCCN2CCN(CCO)CC2)S[C@]12CC[C@@H](C)CC2 | 50 | Non-Toxic |  |  |
| COc1ccccc1CNC1=NC(C)(C)[C@]2(CC[C@H](C)CC2)S1 |  |  | 10 |  |
| COCCNC1=NC(C)(C)[C@]2(CC[C@H](C)CC2)S1 |  | Non-Toxic |  |  |
| Cc1cnc(CN2CCN(CCNC3=NC(C)(C)[C@]4(CC[C@H](C)CC4)S3)CC2)cn1 | 20 |  | 100 |  |
| CC1(C)N=C(NCCc2ccccn2)S[C@]12CC[C@@H](C)CC2 | 3 | Non-Toxic |  |  |
| CC1(C)N=C(NCc2cc(-c3ccccc3)on2)S[C@]12CC[C@@H](C)CC2 |  |  | 10 |  |
| CC(C)N1CCN(CCNC2=NC(C)(C)[C@]3(CC[C@H](C)CC3)S2)CC1 | 30 | Non-Toxic |  |  |
| CC1(C)N=C(NCc2ccccc2)S[C@]12CC[C@@H](C)CC2 |  |  | 10 |  |
| COc1cccc(CNC2=NC(C)(C)[C@]3(CC[C@H](C)CC3)S2)c1 |  |  | 30 |  |
| CC1(C)N=C(NCc2ccncc2)S[C@]12CC[C@@H](C)CC2 | 2 | Non-Toxic |  |  |
| CC1(C)N=C(NCCc2ccncc2)S[C@]12CC[C@@H](C)CC2 | > 100 | Non-Toxic |  |  |
| CC1(C)N=C(NCCN2CCN(Cc3ccccc3)CC2)S[C@]12CC[C@@H](C)CC2 | 0.6 |  | > 30 | inhibition (MDCK [4]): Active; Activity [5]: Toxic |
| CC1(C)N=C(NCCN2CCCC2)S[C@]12CC[C@@H](C)CC2 | 8 | Non-Toxic |  |  |
| COc1ccc(CNC2=NC(C)(C)[C@]3(CC[C@H](C)CC3)S2)cc1 |  |  | 30 |  |
| CC1(C)N=C(N2CCNCC2)S[C@]12CC[C@@H](C)CC2 | > 100 | Non-Toxic |  |  |
| CC1(C)N=C(NCc2ccc(O)c(F)c2)S[C@]12CC[C@@H](C)CC2 | 10 |  | > 30 |  |

| SMILES | EC50 [1] [µM] | Activity [2] | IC50 at 44 h [3] [µM] | other results |
| --- | --- | --- | --- | --- |
| CC1(C)N=C(N)S[C@]12CC[C@@H](C)CC2 | 0.03 | Non-Toxic |  | Activity (MDCK [6]): Active; Activity [7]: Non-Toxic; EC50 [8]: 0.02 µM |
| CC(=O)N1CCN(CCNC2=NC(C)(C)[C@]3(CC[C@H](C)CC3)S2)CC1 | 26 | Non-Toxic |  |  |
| CC1(C)N=C(NCCn2cccc2)S[C@]12CC[C@@H](C)CC2 |  |  | 100 |  |
| CN1CCN(CCNC2=NC(C)(C)[C@]3(CC[C@H](C)CC3)S2)CC1 | 3 | Non-Toxic |  | inhibition (MDCK [4]): Active |
| COc1ccc(CNC2=NC(C)(C)[C@]3(CC[C@H](C)CC3)S2)cc1OC |  | Non-Toxic |  |  |
| CC1(C)N=C(NCc2cccc(O)c2)S[C@]12CC[C@@H](C)CC2 | > 40 | Non-Toxic |  |  |
| CCCCCCCCN1CCN(CCNC2=NC(C)(C)[C@]3(CC[C@H](C)CC3)S2)CC1 | 10 | Non-Toxic |  | inhibition (MDCK [4]): Active |
| CC1(C)N=C(NCc2ccc3cc[nH]c3c2)S[C@]12CC[C@@H](C)CC2 |  |  | > 30 |  |
| CN(C)CCNC1=NC(C)(C)[C@]2(CC[C@H](C)CC2)S1 | 100 | Non-Toxic |  |  |
| CC1(C)N=C(NCCN2CCN(CC3CCCCC3)CC2)S[C@]12CC[C@@H](C)CC2 | 20 | Non-Toxic |  |  |
| CC1(C)N=C(NCc2cccnc2)S[C@]12CC[C@@H](C)CC2 | 5 | Non-Toxic |  |  |
| COc1ccc(CNC2=NC(C)(C)[C@]3(CC[C@H](C)CC3)S2)cc1Cl |  |  | > 30 |  |
| CCCCOc1ccc(CN2CCN(CCNC3=NC(C)(C)[C@]4(CC[C@H](C)CC4)S3)CC2)cc1 |  |  | 3 |  |
| CC1(C)N=C(NCCNCc2ccccc2)S[C@]12CC[C@@H](C)CC2 |  |  | 100 |  |
| CC1(C)N=C(NCc2ccccc2O)S[C@]12CC[C@@H](C)CC2 | 10 |  | 100 |  |
| CCCCN1CCN(CCNC2=NC(C)(C)[C@]3(CC[C@H](C)CC3)S2)CC1 | 3 | Non-Toxic |  | inhibition (MDCK [4]): Active; Activity [5]: Toxic |
| NC12CC3CC(CC(C3)C1)C2 [AMANTADINE] | 0.1 |  |  | Activity (MDCK [6]): Active; Activity [7]: Non-Toxic; EC50 [8]: 0.04 µM; inhibition (INH) [9]: >90% |
| CN1CCN(C2=NC(C)(C)[C@]3(CC[C@H](C)CC3)S2)CC1 | > 100 | Non-Toxic |  |  |
| COc1ccc(C(=O)NC2=NC(C)(C)[C@]3(CC[C@H](C)CC3)S2)cc1 |  |  | 10 |  |
| CC1(C)N=C(NCc2ccc3c(c2)OCO3)S[C@]12CC[C@@H](C)CC2 |  |  | > 30 |  |
| COc1ccc(CNC2=NC(C)(C)[C@]3(CC[C@H](C)CC3)S2)cc1F |  |  | 100 |  |
